From US9284299B2, “Substituted 1H-indazol-1-ol analogs as inhibitors of beta catenin/Tcf protein-protein interactions” (UNIVERSITY OF UTAH RESEARCH FOUNDATION, priority 2012, dated 2016)
Where two headings read alike, the source gives them in different places.

What was measured:
[1] = tested on: HCT 116 colon cancer cell line; assay: MTS-based cell proliferation inhibition assay; conditions: 72 h, dose-dependent (FIG. 2)
Procedure: The cell proliferation agent, 3-(4,5-dimethylthiazol-2-yl)-5-(3-carboxymethoxyphenyl)-2-(4-sulfophenyl)-2H-tetrazolium (“MTS”), was purchased from Promega (Madison, Wis.) and phenazinemethosulfate from Sigma-Aldrich (St. Louis, Mo.). Cultured cell lines were seeded in 96-well plates at 3×10^3 cells/well, maintained overnight at 37° C., and incubated in the presence of the tested compounds at various concentrations. […] Cells were incubated in 10 μL of this solution at 37° C. for 3 h and the UV absorption at 490 nm was measured. Vehicle-treated cells was used as the negative control. The IC50 values and the Hill slopes were generated using Graphpad Prism 5.0. All data were expressed as mean±SD.

[2] = biological target: β-catenin/Tcf4 interaction (Homo sapiens (Human), UniProt P35222); assay: Fluorescence polarization (FP) competitive inhibition assay, β-catenin/Tcf4; format: binding
β-catenin/Tcf4 interaction, sequence (P35222 138-686): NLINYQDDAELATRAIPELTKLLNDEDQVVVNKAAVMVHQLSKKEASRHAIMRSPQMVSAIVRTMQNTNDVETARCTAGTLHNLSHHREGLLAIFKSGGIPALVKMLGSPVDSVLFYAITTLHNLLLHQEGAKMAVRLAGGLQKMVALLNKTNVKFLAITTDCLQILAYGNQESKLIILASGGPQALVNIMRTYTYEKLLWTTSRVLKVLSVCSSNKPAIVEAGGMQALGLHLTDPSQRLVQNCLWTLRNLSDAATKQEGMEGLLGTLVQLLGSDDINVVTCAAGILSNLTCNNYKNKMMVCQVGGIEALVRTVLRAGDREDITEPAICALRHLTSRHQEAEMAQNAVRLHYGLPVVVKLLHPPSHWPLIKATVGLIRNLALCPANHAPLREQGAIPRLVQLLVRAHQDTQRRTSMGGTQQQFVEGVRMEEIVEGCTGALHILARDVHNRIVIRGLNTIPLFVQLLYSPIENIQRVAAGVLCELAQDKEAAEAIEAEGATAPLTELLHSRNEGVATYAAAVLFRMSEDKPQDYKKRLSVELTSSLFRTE
Procedure: Experiments were performed in 96-well Microfluor 2 black plates (Waltham, Mass.), and the samples were read by a Synergy 2 plate reader (Biotek, Winooski, Vt.). […] The final reaction volume is 100 μL.
In the foregoing equation, mP, is the signal of the positive control; mPbound is the signal of the negative control; and mP is the signal of the tested inhibitor compound.

[3] = Table 2, mean ± standard deviation (n=3), read-out: Ki FP

5-(2-(2H-TETRAZOL-5-YL)ETHYL)-1H-INDAZOL-1-OL [Compound 12]
Inhibition of proliferation of colon cancer cell line HCT116 [1]: inhibit the proliferation

O=c1[nH]c(Cc2ccc3c(c2)nnn3O)no1 [Compound 2, 3-((1-HYDROXY-1H-BENZO[D][1,2,3]TRIAZOL-5-YL)METHYL)-1,2,4-OXADIAZOL-5(4H)-ONE]
Ki [2, 3]: 165.4 ± 1.45 µM

O=c1[nH]c(Cc2ccc3c(cnn3O)c2)no1 [Compound 10, 3-((1-HYDROXY-1H-INDAZOL-5-YL)METHYL)-1,2,4-OXADIAZOL-5(4H)-ONE]
Ki [2, 3]: 125 ± 1.3 µM

COc1c(C[C@@H](C)OC(=O)Oc2ccc(O)cc2)c2c3c(C[C@@H](C)OC(=O)c4ccccc4)c(OC)c(=O)c4c(O)cc(OC)c(c5c(OC)cc(O)c(c1=O)c52)c43 [PKF115-584, reference compound]
Ki [2, 3]: 17.8 ± 2.13 µM
Ki ([2]; Table IV, FP assay, read-out: Ki ± SD β-catenin/Tcf4): 17.8 ± 2.13 µM
